Laboratory results: patent publication US20240382629A1, “HETEROBIVALENT AND HOMOBIVALENT AGENTS TARGETING FIBROBLAST ACTIVATION PROTEIN ALPHA AND/OR PROSTATE-SPECIFIC MEMBRANE ANTIGEN” (The Johns Hopkins University, priority 2021, published 2024)
Values joined by “and” are separate entries in the source; they are usually repeats but may differ in a detail not shown here. Equal entries are not always repeated.

Experiment: Biodistribution of [^18F]JHU122047 with UAMC-01110 blocker
Assay type: in vivo, mouse
[1] = + Blocker UAMC-01110, 1 hr post injection, mean
[2] = + Vehicle, 1 hr post injection, mean
[3] = individual mouse, NOD/SCID, 120 min
[4] = individual mouse, NUDE, 120 min
[5] = mean (one sample; gamma counter error), NOD/SCID, 120 min

With `N#C[C@@H]1CCCN1C(=O)CNC(=O)c1ccnc2ccc(OCCF)cc12` [[^18F]JHU122047] the “% ID/g Mean Bladder” value [1] was 2.10 % ID/g, the “% ID/g Mean Bladder” value [2] was 1.13 % ID/g and the “% ID/g Mean Blood” value (Blood, + Blocker UAMC-01110, 1 hr post injection, mean) was 0.12 % ID/g. The “% ID/g Mean Blood” value (Blood, + Vehicle, 1 hr post injection, mean) was 0.36 % ID/g, the “% ID/g Blood” value (Blood, + Vehicle, 1 hr post injection, single mouse) was 0.38 % ID/g and 0.34 % ID/g and the “% ID/g Mean Brain” value [1] was 0.19 % ID/g. The “% ID/g Mean Brain” value [2] was 0.14 % ID/g, the “% ID/g Mean Fat” value [1] was 0.08 % ID/g and the “% ID/g Mean Fat” value [2] was 0.11 % ID/g. The “% ID/g Mean Heart” value (Heart, + Blocker UAMC-01110, 1 hr post injection, mean) was 0.38 % ID/g, the “% ID/g Mean Heart” value (Heart, + Vehicle, 1 hr post injection, mean) was 0.35 % ID/g and the “% ID/g Heart” value (Heart, + Vehicle, 1 hr post injection, single mouse) was 0.35 % ID/g. The “% ID/g Mean Kidney” value [1] was 0.60 % ID/g, the “% ID/g Mean Kidney” value [2] was 1.25 % ID/g and the “% ID/g Mean Large intestine” value [1] was 2.19 % ID/g. For the same molecule, the “% ID/g Mean Large intestine” value [2] was 0.99 % ID/g, the “% ID/g Mean Liver” value (Liver, + Blocker UAMC-01110, 1 hr post injection, mean) was 0.66 % ID/g and the “% ID/g Mean Liver” value (Liver, + Vehicle, 1 hr post injection, mean) was 0.68 % ID/g. The “% ID/g Liver” value (Liver, + Vehicle, 1 hr post injection, single mouse) was 0.67 % ID/g, the “% ID/g Mean Lung” value (Lung, + Blocker UAMC-01110, 1 hr post injection, mean) was 0.33 % ID/g and the “% ID/g Mean Lung” value (Lung, + Vehicle, 1 hr post injection, mean) was 0.36 % ID/g. The “% ID/g Lung” value (Lung, + Vehicle, 1 hr post injection, single mouse) was 0.34 % ID/g and 0.37 % ID/g, the “% ID/g Mean Muscle” value [1] was 0.27 % ID/g and the “% ID/g Mean Muscle” value [2] was 0.34 % ID/g. The “% ID/g Mean Pancreas” value [1] was 0.23 % ID/g, the “% ID/g Mean Pancreas” value [2] was 0.33 % ID/g and the “% ID/g Mean Salivary gland” value [1] was 0.28 % ID/g. The “% ID/g Mean Salivary gland” value [2] was 0.58 % ID/g, the “% ID/g Mean Small intestine” value [1] was 8.53 % ID/g and the “% ID/g Mean Small intestine” value [2] was 2.48 % ID/g. The “% ID/g Mean Spleen” value [1] was 0.28 % ID/g, the “% ID/g Mean Spleen” value [2] was 0.26 % ID/g and the “% ID/g Mean Stomach” value [1] was 0.50 % ID/g. For the same molecule, the “% ID/g Mean Stomach” value [2] was 0.32 % ID/g, the “% ID/g Mean Tumor” value [1] was 0.45 % ID/g and the “% ID/g Mean Tumor” value [2] was 1.96 % ID/g. The “Bladder % ID/g” value (individual mouse) was 12.70 % ID/g and 11.31 % ID/g, the “Brain % ID/g” value (individual mouse) was 0.02 % ID/g and 0.08 % ID/g and the “Fat % ID/g” value (individual mouse) was 0.07 % ID/g and 0.10 % ID/g. For the same molecule, the “Femur % ID/g” value (individual mouse) was 0.87 % ID/g and 0.43 % ID/g, the “Kidney % ID/g” value (individual mouse) was 1.61 % ID/g and 1.54 % ID/g and the “Large intestine % ID/g” value (individual mouse) was 0.18 % ID/g and 0.19 % ID/g. For the same molecule, the “Liver % ID/g” value (individual mouse) was 1.74 % ID/g and 1.65 % ID/g, the “Muscle % ID/g” value (individual mouse) was 0.07 % ID/g and 0.12 % ID/g and the “Pancreas % ID/g” value (individual mouse) was 0.07 % ID/g and 0.19 % ID/g. For the same molecule, the “Salivary gland % ID/g” value (individual mouse) was 0.12 % ID/g and 0.14 % ID/g, the “Small intestine % ID/g” value (individual mouse) was 0.48 % ID/g and 0.45 % ID/g and the “Spleen % ID/g” value (individual mouse) was 0.10 % ID/g and 0.15 % ID/g. For the same molecule, the “Stomach % ID/g” value (individual mouse) was 0.18 % ID/g and 0.17 % ID/g, the “Tumor % ID/g” value (individual mouse) was 0.21 % ID/g and 0.23 % ID/g and the “Bladder % ID/g” value [3] was 3.86 % ID/g. The “Blood % ID/g” value [3] was 0.40 % ID/g and 0.47 % ID/g, the “Brain % ID/g” value [3] was 0.04 % ID/g and the “Fat % ID/g” value [3] was 0.09 % ID/g and 0.18 % ID/g. The “Femur % ID/g” value [3] was 1.59 % ID/g, the “Heart % ID/g” value [3] was 0.20 % ID/g and 0.29 % ID/g and the “Kidney % ID/g” value [3] was 1.51 % ID/g and 1.58 % ID/g. The “Large intestine % ID/g” value [3] was 0.30 % ID/g and 0.45 % ID/g, the “Liver % ID/g” value [3] was 1.11 % ID/g and 0.88 % ID/g and the “Lung % ID/g” value [3] was 0.36 % ID/g and 0.57 % ID/g. The “Muscle % ID/g” value [3] was 0.25 % ID/g and 0.35 % ID/g, the “Pancreas % ID/g” value [3] was 0.38 % ID/g and 0.77 % ID/g and the “Salivary gland % ID/g” value [3] was 0.74 % ID/g and 0.62 % ID/g. The “Small intestine % ID/g” value [3] was 0.38 % ID/g and 0.95 % ID/g, the “Spleen % ID/g” value [3] was 0.26 % ID/g and 0.36 % ID/g and the “Stomach % ID/g” value [3] was 0.22 % ID/g and 0.35 % ID/g. The “Tumor % ID/g” value [3] was 3.13 % ID/g, the “Bladder % ID/g” value [4] was 1.31 % ID/g and 1.80 % ID/g and the “Blood % ID/g” value [4] was 0.66 % ID/g and 0.56 % ID/g. For the same molecule, the “Brain % ID/g” value [4] was 0.05 % ID/g and 0.06 % ID/g, the “Fat % ID/g” value [4] was 0.13 % ID/g and 0.10 % ID/g and the “Femur % ID/g” value [4] was 2.27 % ID/g and 2.55 % ID/g. The “Heart % ID/g” value [4] was 0.34 % ID/g and 0.28 % ID/g, the “Kidney % ID/g” value [4] was 1.50 % ID/g and 1.43 % ID/g and the “Large intestine % ID/g” value [4] was 0.34 % ID/g and 0.41 % ID/g. The “Liver % ID/g” value [4] was 0.45 % ID/g and 0.42 % ID/g, the “Lung % ID/g” value [4] was 0.49 % ID/g and 0.56 % ID/g and the “Muscle % ID/g” value [4] was 0.49 % ID/g and 0.45 % ID/g. The “Pancreas % ID/g” value [4] was 0.53 % ID/g and 0.34 % ID/g, the “Salivary gland % ID/g” value [4] was 1.02 % ID/g and 0.78 % ID/g and the “Small intestine % ID/g” value [4] was 0.35 % ID/g and 0.31 % ID/g. The “Spleen % ID/g” value [4] was 0.22 % ID/g, the “Stomach % ID/g” value [4] was 0.27 % ID/g and 0.25 % ID/g and the “Tumor % ID/g” value [4] was 2.65 % ID/g and 3.51 % ID/g. For the same molecule, the “Bladder % ID/g” value (mean) was 12.01 % ID/g, the “Brain % ID/g” value (mean) was 0.02 % ID/g and the “Fat % ID/g” value (mean) was 0.08 % ID/g. For the same molecule, the “Femur % ID/g” value (mean) was 0.40 % ID/g, the “Kidney % ID/g” value (mean) was 1.57 % ID/g and the “Large intestine % ID/g” value (mean) was 0.18 % ID/g. For the same molecule, the “Liver % ID/g” value (mean) was 1.70 % ID/g, the “Lung % ID/g” value (mean) was 0.38 % ID/g and the “Muscle % ID/g” value (mean) was 0.09 % ID/g. The “Pancreas % ID/g” value (mean) was 0.10 % ID/g, the “Salivary gland % ID/g” value (mean) was 0.13 % ID/g and the “Small intestine % ID/g” value (mean) was 0.47 % ID/g. The “Spleen % ID/g” value (mean) was 0.13 % ID/g, the “Stomach % ID/g” value (mean) was 0.17 % ID/g and the “Tumor % ID/g” value (mean) was 0.22 % ID/g. The “Bladder % ID/g” value [5] was 3.86 % ID/g, the “Femur % ID/g” value [5] was 1.59 % ID/g and the “Tumor % ID/g” value [5] was 3.13 % ID/g. The “Blood % ID/g” value (mean, NOD/SCID, 120 min) was 0.43 % ID/g, the “Brain % ID/g” value (mean, NOD/SCID, 120 min) was 0.04 % ID/g and the “Fat % ID/g” value (mean, NOD/SCID, 120 min) was 0.11 % ID/g. For the same molecule, the “Heart % ID/g” value (mean, NOD/SCID, 120 min) was 0.24 % ID/g, the “Kidney % ID/g” value (mean, NOD/SCID, 120 min) was 1.55 % ID/g and the “Large intestine % ID/g” value (mean, NOD/SCID, 120 min) was 0.37 % ID/g. The “Liver % ID/g” value (mean, NOD/SCID, 120 min) was 1.00 % ID/g, the “Lung % ID/g” value (mean, NOD/SCID, 120 min) was 0.47 % ID/g and the “Muscle % ID/g” value (mean, NOD/SCID, 120 min) was 0.30 % ID/g. For the same molecule, the “Pancreas % ID/g” value (mean, NOD/SCID, 120 min) was 0.57 % ID/g, the “Salivary gland % ID/g” value (mean, NOD/SCID, 120 min) was 0.58 % ID/g and the “Small intestine % ID/g” value (mean, NOD/SCID, 120 min) was 0.67 % ID/g. The “Spleen % ID/g” value (mean, NOD/SCID, 120 min) was 0.31 % ID/g, the “Stomach % ID/g” value (mean, NOD/SCID, 120 min) was 0.28 % ID/g and the “Bladder % ID/g” value (mean, NUDE, 120 min) was 1.55 % ID/g. The “Blood % ID/g” value (mean, NUDE, 120 min) was 0.61 % ID/g, the “Brain % ID/g” value (mean, NUDE, 120 min) was 0.06 % ID/g and the “Fat % ID/g” value (mean, NUDE, 120 min) was 0.12 % ID/g. The “Femur % ID/g” value (mean, NUDE, 120 min) was 2.41 % ID/g, the “Heart % ID/g” value (mean, NUDE, 120 min) was 0.31 % ID/g and the “Kidney % ID/g” value (mean, NUDE, 120 min) was 1.46 % ID/g. For the same molecule, the “Large intestine % ID/g” value (mean, NUDE, 120 min) was 0.37 % ID/g, the “Liver % ID/g” value (mean, NUDE, 120 min) was 0.44 % ID/g and the “Lung % ID/g” value (mean, NUDE, 120 min) was 0.53 % ID/g. The “Muscle % ID/g” value (mean, NUDE, 120 min) was 0.47 % ID/g, the “Pancreas % ID/g” value (mean, NUDE, 120 min) was 0.43 % ID/g and the “Salivary gland % ID/g” value (mean, NUDE, 120 min) was 0.90 % ID/g. For the same molecule, the “Small intestine % ID/g” value (mean, NUDE, 120 min) was 0.33 % ID/g, the “Spleen % ID/g” value (mean, NUDE, 120 min) was 0.22 % ID/g and the “Stomach % ID/g” value (mean, NUDE, 120 min) was 0.26 % ID/g. For the same molecule, the “Tumor % ID/g” value (mean, NUDE, 120 min) was 3.08 % ID/g.
